For assay [1], the target named is T1, leukemia inhibitory factor receptor (LIFR) (Homo sapiens, UniProt P42702).
T1 construct: Recombinant human LIFR (His-Tag)
Nature of the assay: biochemical. Also on record: Alpha Screen inhibition of biotinylated LIF binding to His-tagged human LIFR. To be noted: LIF/LIFR binding. The protocol: Amplified Luminescent Proximity Homogeneous Assay on LIF-LIFR Recombinant human LIFR (His-Tag) and LIF (biotinylated) were purchased from Sino Biologicals (Sino Biological Europe GmbH, Dusseldorf, Germany) and R&D Systems (Abingdon, UK), respectively, and both were reconstituted as required by the manufacturer. Inhibition of LIFR/LIF binding was measured by Alpha Screen, in white, low-volume, 384-well AlphaPlates (Revvity, Italy) using a final volume of 15 μL and an assay buffer containing 25 mM Hepes (pH 7.4), 100 mM NaCl, and 0.005% Kathon. The concentration of DMSO in each well was maintained at 5% vol/vol. LIFR (His-Tag, final concentration 4.5 nM) was incubated with either the compounds or DMSO for 45 min under continuous shaking. Then, LIF was added (biotinylated, final concentration 9 nM), and the samples were incubated for 15 min prior to adding nickel chelate acceptor beads (final concentration 20 ng/μL) for 30 min. Then, streptavidin donor beads were added (final concentration 20 ng/μL), and the plate was incubated in the dark for 2 h and then read in a Victor Nivo (Revvity, Italy) Multimode Microplate Reader.

For assay [2], the system named is leukemia inhibitory factor receptor (LIFR). Nature of the assay: cells. More on the design: LIFR/STAT3 luciferase reporter transactivation, LIF 10 ng/mL stimulated, Renilla normalized. To be noted: Homo sapiens, HepG2, 24 h; LIF 10 ng/mL stimulated; read-out: Transactivation Inhibition (%), 50 µM. The protocol: Luciferase Reporter Gene Assay To evaluate the LIFR/STAT3 signaling, HepG2 (HB, 8065 from ATCC), were seeded at 7.5 × 10^4 cells/well in a 24-well plate and maintained at 37 °C and 5% CO2 in E-MEM added with 10% FBS, 1% glutamine, and 1% penicillin/streptomycin. On day-1, cells were transiently transfected with the reporter plasmid pGL4.47[luc2P/SIE/Hygro] (CAT no. E4041 Promega, Madison, WI, USA), a vector encoding the hLIFR (CAT no. RC226327) and CD130 (IL6ST) (CAT no. RC215123, OriGene Technologies, Inc. Rockville, MD USA), and finally a vector encoding the human Renilla luciferase gene (pGL4.70) (Promega, Madison, WI, USA). On day-2, cells were primed with the cytokine LIF (10 ng/mL) alone or in combination with different compounds at the concentrations of 10 μM and 50 μM. Then, after 24 h, cellular lysate was assayed for luciferase and Renilla activities using the Firefly & Renilla Luciferase Single TubeAssay Kit (Biotium, Fremont, CA). Luminescence was measured using Glomax 20/20 luminometer (Promega, Madison, WI, USA). Luciferase activities were normalized with Renilla activities.

Assay [3] has as its target T1, leukemia inhibitory factor receptor (LIFR). Nature of the assay: cell-free AlphaScreen LIF/LIFR binding inhibition.
Assay [4] shares this target. Nature of the assay: cell-free AlphaScreen LIF/LIFR binding inhibition; LIFR transactivation in HepG2. A general note: Bead proximity is the source of the signal in Alpha formats.

Where only a bound is given, the exact number is not on record here.

From paper PMC12138715, “Exploring Boswellia serrata Triterpenes: A New Frontier in Leukemia Inhibitory Factor Receptor Modulation” (ACS Omega, 2025) come the findings set out here.

T1 sequence (P42702 45-1097): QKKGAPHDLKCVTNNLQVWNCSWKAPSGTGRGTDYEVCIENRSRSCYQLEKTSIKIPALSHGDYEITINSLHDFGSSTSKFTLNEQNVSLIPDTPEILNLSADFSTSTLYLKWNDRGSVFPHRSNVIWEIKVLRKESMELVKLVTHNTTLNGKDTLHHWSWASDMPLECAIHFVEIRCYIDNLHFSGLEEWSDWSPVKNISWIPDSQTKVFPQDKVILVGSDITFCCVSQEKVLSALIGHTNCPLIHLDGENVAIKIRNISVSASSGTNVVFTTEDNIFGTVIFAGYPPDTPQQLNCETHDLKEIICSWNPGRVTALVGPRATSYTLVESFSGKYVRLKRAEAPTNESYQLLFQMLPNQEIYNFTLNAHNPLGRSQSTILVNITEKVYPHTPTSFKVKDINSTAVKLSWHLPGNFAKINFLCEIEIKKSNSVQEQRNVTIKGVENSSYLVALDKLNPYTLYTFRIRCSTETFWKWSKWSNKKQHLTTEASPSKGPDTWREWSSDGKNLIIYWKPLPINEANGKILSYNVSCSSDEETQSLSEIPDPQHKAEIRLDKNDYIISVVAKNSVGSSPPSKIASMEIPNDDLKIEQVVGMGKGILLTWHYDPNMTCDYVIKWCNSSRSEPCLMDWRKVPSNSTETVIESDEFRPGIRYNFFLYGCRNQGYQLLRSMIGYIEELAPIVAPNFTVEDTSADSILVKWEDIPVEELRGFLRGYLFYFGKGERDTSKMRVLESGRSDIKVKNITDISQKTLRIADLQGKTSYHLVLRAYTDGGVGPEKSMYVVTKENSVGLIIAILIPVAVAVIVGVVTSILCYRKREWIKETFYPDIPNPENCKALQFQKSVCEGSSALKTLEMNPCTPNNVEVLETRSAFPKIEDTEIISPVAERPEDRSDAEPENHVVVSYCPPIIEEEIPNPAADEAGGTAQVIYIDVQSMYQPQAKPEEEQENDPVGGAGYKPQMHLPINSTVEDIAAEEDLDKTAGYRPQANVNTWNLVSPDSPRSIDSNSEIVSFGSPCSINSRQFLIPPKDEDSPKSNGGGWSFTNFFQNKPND
T1 sequence (P15018 23-202 partner): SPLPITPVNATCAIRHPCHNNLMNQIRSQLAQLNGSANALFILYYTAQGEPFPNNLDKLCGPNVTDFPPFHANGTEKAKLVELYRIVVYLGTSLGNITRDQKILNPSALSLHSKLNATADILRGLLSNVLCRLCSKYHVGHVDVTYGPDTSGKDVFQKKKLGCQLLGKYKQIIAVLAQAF

By inhibition is commonly meant the share of the control response that was lost under treatment. As for `CC1CCC2(C)CCC3(C)C(=CCC4C5(C)CCC(O)C(C)(C(=O)NCC(=O)O)C5CCC43C)C2C1C` (stereo not shown) [compound 24, 24], in assay [1], the inhibition at 10 µM worked out at 48.7% and the inhibition at 50 µM stood at 86.9%. The inhibition at 50 µM in assay [2] stood at 74.8%.

In assay [1], `CC1(C)CCC2(C)CCC3(C)C(=CCC4C5(C)CCC(O)C(C)(C(=O)NCC(=O)O)C5CCC43C)C2C1` (stereo not shown) [compound 22, 22] showed an inhibition at 10 µM of 51.3% and an inhibition at 50 µM of 83.7%. The inhibition at 50 µM in assay [2] is 58.3%.

In assay [1], `CC1CCC2(C)CCC3(C)C(=CCC4C5(C)CCC(O)C(C)(C(=O)NCCS(=O)(=O)O)C5CCC43C)C2C1C` (stereo not shown) [compound 23, 23] yielded an inhibition at 10 µM of 52.9% and an inhibition at 50 µM of 88.5%. The inhibition at 50 µM in assay [2] came to 70.2%.

What is called IC50 is the concentration needed to halve the response being measured. As for `CC(=O)O[C@@H]1CC[C@@]2(C)[C@@H](CC[C@]3(C)[C@@H]2CC=C2[C@@H]4CC(C)(C)CC[C@]4(C)CC[C@]23C)[C@@]1(C)C(=O)O` [compound 3, (4R)-3α-Acetylolean-12-en-24-oic Acid], the IC50 in assay [3] (read-out: IC50) was less than 10 µM.

For the compound `CC(C)=CCC[C@H](C(=O)O)[C@@H]1CC[C@]2(C)C3=C(CC[C@@]12C)[C@@]1(C)CC[C@@H](O)C(C)(C)[C@@H]1CC3` [compound 15, 3α-Hydroxytirucalla-8,24-dien-21-oic Acid], in assay [3], the IC50 was less than 10 µM.

With `CC(C)=CCC[C@H](C(=O)O)[C@@H]1CC[C@]2(C)C3=C(CC[C@@]12C)[C@@]1(C)CCC(=O)C(C)(C)[C@@H]1CC3` [compound 17, 3-Oxotirucalla-8,24-dien-21-oic Acid], the IC50 in assay [3] was less than 10 µM.

Regarding `CC1(C)CC[C@]2(C)CC[C@]3(C)C(=CC[C@@H]4[C@@]5(C)CC[C@@H](O)[C@](C)(C(=O)O)[C@@H]5CC[C@]43C)[C@@H]2C1` [compound 1, (4R)-3α-Hydroxyolean-12-en-24-oic Acid], the IC50 in assay [4] is less than 10 µM.

As to `CC(=O)O[C@@H]1CC[C@@]2(C)[C@@H](CC[C@]3(C)[C@@H]2CC=C2[C@@H]4[C@@H](C)[C@H](C)CC[C@]4(C)CC[C@]23C)[C@@]1(C)C(=O)O` [compound 4, (4R)-3α-Acetylurs-12-en-24-oic Acid], the half-inhibitory concentration (IC50) in assay [3] (read-out: IC50) was less than 10 µM.

In the case of `C[C@H]1[C@H](C)CC[C@]2(C)CC[C@]3(C)C(=CC[C@@H]4[C@@]5(C)CC[C@@H](O)[C@](C)(C(=O)O)[C@@H]5CC[C@]43C)[C@H]12` [compound 2, (4R)-3α-Hydroxyurs-12-en-24-oic Acid], the IC50 in assay [4] was less than 10 µM.

On to `CC1(C)CCC2(C)CCC3(C)C(=CCC4C5(C)CCC(O)C(C)(C(=O)NCCS(=O)(=O)O)C5CCC43C)C2C1` (stereo not shown) [compound 21, 21], for which at 10 µM the inhibition in assay [1] was 45.4%. The inhibition at 50 µM in assay [1] came to 67.7%; in assay [2], 68.8%.

For `CC(C)=CCC[C@H](C(=O)O)[C@@H]1CC[C@]2(C)C3=C(CC[C@@]12C)[C@@]1(C)CC[C@H](O)C(C)(C)[C@@H]1CC3` [compound 16, 3β-Hydroxytirucalla-8,24-dien-21-oic Acid], in assay [3], the concentration for half-maximal inhibition (IC50) was less than 10 µM.
